The target in one data set is NK1 receptor (Meriones unguiculatus (Mongolian jird) (Gerbillus unguiculatus), UniProt Q5DUB1). Put plainly: Effect on GR73632-induced foot-tapping. The data set is classed as in vivo. As to conditions: 0.3 mg/kg from the jugular vein, GR73632 after four hours, male gerbil. How it is done:
(1) Effect on Foot-tapping
(§1) A male gerbil (Japan SLC) was anesthetized with isoflurane, and 0.3 mg/kg of a test compound was administered from the jugular vein. After four hours, GR73632 (5 pmol/5 μl), which is an NK1 receptor agonist, was administered into the cerebral ventricle at the part 1 mm lateral to and 4.5 mm below the bregma in the head, under anesthesia with isoflurane. After the administration, the gerbil was moved to an observation cage, and the foot-tapping period during five minutes after the recovery of the righting reflex was measured. The foot-tapping inhibition rate (%) of each test compound was calculated by the following equation. Foot-tapping inhibition rate (%)={1−(Foot-tapping period when test compound was administered)/(Foot-tapping period when solvent was administered)}×100 (2) Measurement of Drug Concentrations
(§2) In the table, Ex. No. means the Example number. Inhibition (%) is the foot-tapping inhibition rate, and Conc. (nM) is the drug concentration in the brain.

Data set [1] is described as follows: Measurement of drug concentrations in the brain after foot-tapping test. The data set is classed as in vivo. The following applies: male; 0.3 mg/kg iv, after foot-tapping was finished, gerbil brain; read-out: Conc. (drug concentration in the brain). How it is done: as §1
After foot-tapping was finished, laparotomy was performed immediately under anesthesia with ether, and a blood sample was taken from the abdominal vena cava. At the same time, the brain was extracted. Through a quantitative analysis using liquid chromatography-mass spectrometry (LC/MS), the concentrations of the test compound in the plasma and the brain were measured.
as §2

A further data set addresses hERG channel (Homo sapiens (Human), UniProt Q12809). Put plainly: Evaluation of hERG current (whole-cell patch clamp). The data set is classed as cell-based. As to conditions: 10 μM, application for 10 minutes, n = 3, average ± standard error. Here is the method: Evaluation of hERG Current
The hERG current was measured by a whole-cell method using a patch clamp system, where a cover glass on which hERG channel-expressing human embryonic kidney (HEK) 293 cells were seeded was placed on a perfusion bath and a perfusion solution was caused to flow. The change in the hERG channel-derived current caused by a pulse protocol (holding potential of −80 mV, depolarization pulse of +20 mV for 1.9 seconds, repolarization pulse of −50 mV for 2 seconds, stimulated at intervals of 15 seconds) of data acquisition/analysis software, pCLAMP9 (Axon Instruments, Inc.), was measured. The measurement conditions were a flow rate of about 1.5 mL/min and a temperature of about 33° C. Two wave forms just before applying the test compound and two wave forms immediately after the application for 10 minutes were analyzed, and the statistical analysis was performed. The value before the application of the test compound was regarded as 100%, and the change rate based on the value was determined.
In the table. Ex. No. means the Example number, and the value is the average±the standard error.

The next data set concerns the target CYP3A4 (Homo sapiens (Human), UniProt P08684). Description: Inhibitory effect on CYP3A4 (Luciferin-IPA). The following applies: read-out: IC50 (CYP3A4 inhibition); 30-minute pre-incubation group.
In a further data set the target is human NK1 receptor (Homo sapiens (Human), UniProt P25103). Put plainly: Inhibitory effect on human NK1 receptor (substance P-induced increase in intracellular calcium concentration). The data set is classed as cell-based. As to conditions: HEK-293T; substance P 1 μM, compound 0.1 μM; human NK1 receptor-expressing 293T cells; read-out: SPRR (Substance P-Response Remaining). How it is done: Inhibitory Effect on Human NK1 Receptor
(1) Preparation of Human NK1 Receptor-expressing Cells
Human NK1 receptor-expressing cells were prepared by the same methods as those described in 2-3 and 2-4 of Test Example 1.
(2) Study on Inhibitory Effect on Increase in Intracellular Calcium Concentration
The human NK1 receptor-expressing cells were washed with 300 μL/well of a washing solution (20 mM HEPES/Hank's Balanced Salt Solution (HBSS) […]). A fluorescent calcium indicator (Fluo-4 Direct Calcium Assay Kit, Life Technologies, containing 0.42 mM probenecid and 0.1% bovine serum albumin, prepared according to the protocol of the product) was added to the wells at 150 μL/well, and the plate was incubated at 37° C. for 30 minutes in an incubator. Then, DMSO solutions of a test compound, which were prepared at an 80-time higher concentration using 100% dimethyl sulfoxide (DMSO), were added to the wells at 2.5 μL/well (final concentrations of 0.1, 1 and 10 μM), and the solutions were mixed. Then, the plate was further incubated at 37° C. for 30 minutes in an incubator. After 30 minutes, the intracellular calcium concentrations were measured immediately.
The intracellular calcium concentrations were each measured as a fluorescent signal using FDSS (registered trademark) 7000 (Hamamatsu Photonics). A substance P (Peptide Institute, Inc.) solution which was prepared at 0.4 μM or 4 μM using an assay buffer (20 mM HEPES/Hank's Balanced Salt Solution (HBSS) pH 7.3, containing 0.1% bovine serum albumin) was added automatically to each well at 50 μL/well (final concentration of 0.1 or 1 μM) 10 seconds after starting reading, and the fluorescent signal was measured up to 120 seconds.
The intracellular calcium concentration (%) of the cells to which a test compound was added was calculated by the equation below, where the fluorescent signal of the group to which the vehicle (DMSO) was added was regarded as 100%, and the fluorescent signal before the addition of substance P was regarded as 0%. Intracellular calcium concentration(%)=(Fluorescent signal of test compound addition group)/(Fluorescent signal of vehicle addition group)×100
The intracellular calcium concentration (%) calculated was regarded as the remaining agonist activity of substance P (Substance P-Response Remaining: SPRR). In the table, Ex. No. means the Example number. SPRR (%) is the value obtained when the concentration of substance P was 1 μM and the concentration of the compound was 0.1 μM.
Background: Calcium assays in cells follow changes in intracellular calcium, usually with a dye or a luminescent sensor.

This is an account of results in patent US10100030B2 (Kissei Pharmaceutical Co., Ltd., priority 2013, dated 2018).

For orientation: IC50 means the point on the concentration scale where inhibition reaches its midpoint.

Chain of NK1 receptor (Q5DUB1 whole entry): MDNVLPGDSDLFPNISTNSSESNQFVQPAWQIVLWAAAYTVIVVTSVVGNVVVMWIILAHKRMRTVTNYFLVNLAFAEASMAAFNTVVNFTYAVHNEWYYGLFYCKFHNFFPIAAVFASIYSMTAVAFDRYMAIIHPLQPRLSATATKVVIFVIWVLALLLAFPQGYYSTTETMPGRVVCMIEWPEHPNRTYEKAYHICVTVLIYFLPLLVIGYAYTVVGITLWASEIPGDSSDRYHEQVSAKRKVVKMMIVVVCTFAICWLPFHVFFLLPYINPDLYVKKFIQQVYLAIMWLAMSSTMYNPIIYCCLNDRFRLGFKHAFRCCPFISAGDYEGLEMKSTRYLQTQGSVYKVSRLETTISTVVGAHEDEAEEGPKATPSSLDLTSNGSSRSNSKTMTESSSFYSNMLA
Chain of human NK1 receptor (P25103 whole entry): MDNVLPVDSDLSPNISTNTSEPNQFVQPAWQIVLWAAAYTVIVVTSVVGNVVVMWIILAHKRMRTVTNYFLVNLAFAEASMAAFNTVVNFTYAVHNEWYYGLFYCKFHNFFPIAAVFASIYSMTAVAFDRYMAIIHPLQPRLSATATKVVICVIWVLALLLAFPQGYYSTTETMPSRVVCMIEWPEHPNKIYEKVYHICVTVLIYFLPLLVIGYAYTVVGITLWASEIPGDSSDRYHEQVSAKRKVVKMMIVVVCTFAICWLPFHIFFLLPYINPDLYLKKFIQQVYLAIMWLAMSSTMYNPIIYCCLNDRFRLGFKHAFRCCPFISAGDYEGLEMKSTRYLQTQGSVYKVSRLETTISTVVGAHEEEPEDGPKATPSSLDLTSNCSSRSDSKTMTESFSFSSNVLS
Chain of CYP3A4 (P08684 whole entry): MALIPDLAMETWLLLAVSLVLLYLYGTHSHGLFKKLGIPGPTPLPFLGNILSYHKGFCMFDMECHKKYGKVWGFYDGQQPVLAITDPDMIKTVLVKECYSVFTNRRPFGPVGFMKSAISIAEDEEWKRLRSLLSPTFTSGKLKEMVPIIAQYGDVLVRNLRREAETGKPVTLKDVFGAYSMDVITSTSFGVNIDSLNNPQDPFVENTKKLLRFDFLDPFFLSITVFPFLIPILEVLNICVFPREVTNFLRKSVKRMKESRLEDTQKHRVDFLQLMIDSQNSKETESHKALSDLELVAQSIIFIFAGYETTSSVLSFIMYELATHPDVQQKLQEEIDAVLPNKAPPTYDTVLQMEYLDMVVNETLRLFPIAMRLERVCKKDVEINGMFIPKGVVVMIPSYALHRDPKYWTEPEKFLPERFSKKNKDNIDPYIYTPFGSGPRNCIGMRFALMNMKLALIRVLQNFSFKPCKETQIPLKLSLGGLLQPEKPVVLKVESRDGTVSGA
Chain of hERG channel (Q12809 whole entry, the tested form may be a part): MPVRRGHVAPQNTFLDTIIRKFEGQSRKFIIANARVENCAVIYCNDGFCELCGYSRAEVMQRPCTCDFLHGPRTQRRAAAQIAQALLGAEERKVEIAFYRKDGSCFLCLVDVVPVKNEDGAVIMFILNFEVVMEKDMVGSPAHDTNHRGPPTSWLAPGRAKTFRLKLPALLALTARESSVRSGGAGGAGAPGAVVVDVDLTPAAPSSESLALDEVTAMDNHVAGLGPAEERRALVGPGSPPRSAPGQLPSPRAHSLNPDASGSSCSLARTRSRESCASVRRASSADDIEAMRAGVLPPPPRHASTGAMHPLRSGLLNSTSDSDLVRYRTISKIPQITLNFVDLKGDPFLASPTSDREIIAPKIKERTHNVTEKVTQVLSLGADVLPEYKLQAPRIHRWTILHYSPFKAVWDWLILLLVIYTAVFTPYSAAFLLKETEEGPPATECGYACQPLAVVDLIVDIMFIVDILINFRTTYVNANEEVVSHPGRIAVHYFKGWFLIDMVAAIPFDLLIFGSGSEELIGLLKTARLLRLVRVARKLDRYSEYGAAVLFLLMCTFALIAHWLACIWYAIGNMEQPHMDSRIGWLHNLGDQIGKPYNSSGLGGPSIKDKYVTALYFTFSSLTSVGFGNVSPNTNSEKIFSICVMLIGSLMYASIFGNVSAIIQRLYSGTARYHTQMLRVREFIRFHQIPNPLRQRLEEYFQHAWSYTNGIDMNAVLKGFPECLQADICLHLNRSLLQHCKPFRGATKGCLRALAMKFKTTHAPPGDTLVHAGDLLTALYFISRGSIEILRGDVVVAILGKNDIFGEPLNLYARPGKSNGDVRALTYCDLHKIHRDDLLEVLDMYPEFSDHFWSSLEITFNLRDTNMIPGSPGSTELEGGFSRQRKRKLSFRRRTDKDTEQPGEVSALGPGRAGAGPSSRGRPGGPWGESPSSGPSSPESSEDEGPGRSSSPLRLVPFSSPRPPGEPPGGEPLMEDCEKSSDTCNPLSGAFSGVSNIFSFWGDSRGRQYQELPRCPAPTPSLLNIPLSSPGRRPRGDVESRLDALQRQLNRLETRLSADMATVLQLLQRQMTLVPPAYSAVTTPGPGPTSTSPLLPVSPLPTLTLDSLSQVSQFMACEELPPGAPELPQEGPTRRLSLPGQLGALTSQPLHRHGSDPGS
Description for CYP3A4: Enzyme reaction was performed by incubating in a potassium phosphate buffer solution (pH 7.4) containing 1 nM to 20 μM test compound, 3.2 mM magnesium chloride, 0.2 pmol human CYP3A4 (BD Biosciences), 0.5 mM reduced nicotinamide adenine dinucleotide phosphate (NADPH) and 3 μM Luciferin-IPA (Promega) at 37° C. for 10 minutes. The volume of the reaction solution was 50 μL/well. The 30-minute pre-incubation group was incubated at 37° C. for 30 minutes before adding the substrate, the Luciferin-IPA solution (12.5 μL/well). At the end of the enzyme reaction, 50 μL/well of a Luciferin detection reagent (Promega) was added to the wells, and the plate was left at room temperature for 20 minutes. Then, the emission intensities were measured with Infinite M1000 (TECAN). The enzyme activities (%) relative to the value of the group to which the test compound was not added were calculated.

For `Cc1cc(F)ccc1-c1cc(N2CCC(CC(=O)O)CC2)ncc1N(C)C(=O)C(C)(C)c1cc(C(F)(F)F)cc(C(F)(F)F)c1` [Example 1], the “Inhibition (foot-tapping inhibition rate)” value at NK1 receptor is reported as 100%. The concentration at 4 h in data set [1] is 275 nM. In addition, the “hERG current, % of value before application” value on hERG channel came to 93.9 ± 2.7%. Besides, the half-inhibitory concentration (IC50) at CYP3A4 was determined as 6.2 µM. The remaining activity at 0.1 µM on human NK1 receptor stood at 28%.
